The source of these data is article PMC7822874, “Chemoprotective antimalarials identified through quantitative high-throughput screening of Plasmodium blood and liver stage parasites” (Scientific Reports, 2021).

The test system of data set [1] is P. berghei-ANKA-GFP-LucCON liver stage parasites in HepG2-A16-CD81EGFP cells. Nature of the data set: P. berghei liver stage Pb-Luc assay, Method 1 (UCSD, 1536-well). Type of data set: cell-based, Plasmodium berghei. Particulars: Plasmodium berghei; for AC50: Method 1; for activity at 1 µM / activity at 3 µM: 48 h, average of 2 wells on a 1536 well plate; for activity at 1 µM: 1 uM (compounds provided at 10 mM); for activity at 3 µM: 3 uM (compounds provided at 10 mM).

Data set [2] has as its system Plasmodium falciparum Dd2 asexual blood stage parasites. Nature of the data set: microbe, parasite or virus in culture. More on the design: species or system Plasmodium falciparum Dd2 in human erythrocytes; single determination (one 11-point concentration-response curve). The following applies: Plasmodium falciparum, DD2, Erythrocyte, 72 h; read-out: AC50.
The nature of another data set: in vitro. Particulars: human, HepG2-A16-CD81EGFP cells, uninfected.
Setting [3] is: column 11, read-out: Pb-Luc (P. berghei liver stage), % of control, lower concentration, first repeat.
Where [4] appears, read: column 12, read-out: Pb-Luc (P. berghei liver stage), % of control, lower concentration, second repeat.
[5] abbreviates: column 8, read-out: Pb-Luc (P. berghei liver stage), % of control, higher concentration, first repeat.
Setting [6] is: column 9, read-out: Pb-Luc (P. berghei liver stage), % of control, higher concentration, second repeat.

Like-named read-outs stand apart in the source and are kept apart here.

As usually defined, the AC50 is the concentration at which the activity in the assay is half-maximal. One may read the viability as a read-out of living cells in per cent, often relative to untreated cells. On to `CC1CCCCN1S(=O)(=O)c1ccc(C(=O)Nc2ccccc2-c2nc3ccccc3[nH]2)cc1` (stereo not shown) [MLS000697052-01], for which the AC50 was 355 nM in data set [1] (Hill fit, 50% of maximum activity response, read-out: AC50); 355 nM in data set [1] (log10 of molar AC50 from Hill fit, read-out: Log AC50 (converted)); 7500 nM in data set [2]. The viability at 66 h in “in vitro” came to 104%.
Consider `COc1cc(Cl)c(C)cc1NC(C)C(=O)Nc1cc(C(F)(F)F)ccc1N1CCOCC1` (stereo not shown) [MLS000375301-01], for which the activity at 1 µM in data set [1] (setting [3]) stood at 124%; in data set [1] (setting [4]), 129%. In addition, the activity at 3 µM in data set [1] (setting [5]) and in data set [1] (setting [6]) was 103% in each case. The AC50 in data set [2] came out at 422 nM. Moreover, the viability at 48 h, 1 µM in “in vitro” was 109%. Also, the viability at 48 h, 3 µM in the data set “in vitro” turned out to be 94%.
With `Cc1ccc(NC(=O)c2cc(C(=O)c3cc(Cl)ccc3O)cn(-c3ccc(C)cc3)c2=O)cc1` [MLS000374606-01], the activity at 1 µM in data set [1] (setting [3]) worked out at 98%; in data set [1] (setting [4]) it was 87%. The activity at 3 µM in data set [1] (setting [5]) was found to be 59%; in data set [1] (setting [6]), 61%. The AC50 in data set [2] came out at 422 nM. The viability at 48 h, 1 µM in the data set “in vitro” came out at 106%. For the same compound, in “in vitro”, the viability at 48 h, 3 µM is 93%.
Consider `COc1cccc(NC(=O)CN(C)C(=O)c2ccc(-c3ccc(Cl)cc3)o2)c1` [MLS001142098-01], for which the activity at 1 µM in data set [1] (setting [3]) was 146%; in data set [1] (setting [4]), 155%. In addition, the figures for the activity at 3 µM in data set [1] (setting [5]) and in data set [1] (setting [6]) were 150% and 187%, respectively. Besides, the AC50 in data set [2] was found to be 4220 nM. Moreover, the viability at 48 h, 1 µM in the data set “in vitro” came out at 100%. The viability at 48 h, 3 µM in the data set “in vitro” turned out to be 100%.
For the compound `Cc1cc(NC2C3CC4CC(C3)CC2C4)n2nnnc2n1` (stereo not shown) [MLS000033680-01], the activity at 1 µM in data set [1] (setting [3]) amounted to 124%; in data set [1] (setting [4]), 128%. The activity at 3 µM was 108% in data set [1] (setting [5]) and 131% in data set [1] (setting [6]). Also, the viability at 48 h, 1 µM in the data set “in vitro” stood at 99%. For the same compound, the viability at 48 h, 3 µM in the data set “in vitro” came to 108%.
As for `COc1ccc(NC2=NC3(CCCCC3)N=C(N)N2)cc1` [MLS000090248-01], the activity at 1 µM in data set [1] (setting [3]) is 133%; in data set [1] (setting [4]), 110%. For the same compound, the activity at 3 µM stood at 100% in data set [1] (setting [5]) and 80% in data set [1] (setting [6]). Also, the viability at 48 h, 1 µM in “in vitro” was 113%. In addition, in “in vitro”, the viability at 48 h, 3 µM turned out to be 97%.
As for `COc1ccccc1NC(=O)CN1CCN(C(=O)c2ccco2)CC1` [MLS000122729-01], the values for the activity at 1 µM in data set [1] (setting [3]) and in data set [1] (setting [4]) were 130% and 101%, respectively. The activity at 3 µM in data set [1] (setting [5]) was found to be 50%; in data set [1] (setting [6]), 80%. Also, in “in vitro”, the viability at 48 h, 1 µM came out at 101%. Further, the viability at 48 h, 3 µM in the data set “in vitro” amounted to 101%.
On to `COc1ccc(Cc2nnc(NC(=O)c3ccc(OC)cc3OC)s2)cc1` [MLS001211969-01], for which the activity at 1 µM in data set [1] (setting [3]) stood at 125%; in data set [1] (setting [4]) it was 130%. Moreover, the activity at 3 µM in data set [1] (setting [5]) and in data set [1] (setting [6]) was 128% each time. Also, in the data set “in vitro”, the viability at 48 h, 1 µM was 100%. Moreover, the viability at 48 h, 3 µM in the data set “in vitro” stood at 104%.
With `c1cncc(-c2nnc(-c3cccnc3)nn2)c1` [MLS000075752-01], the activity at 1 µM in data set [1] (setting [3]) is 110%; in data set [1] (setting [4]), 109%. Also, the activity at 3 µM in data set [1] (setting [5]) is 109%; in data set [1] (setting [6]), 117%. In the data set “in vitro”, the viability at 48 h, 1 µM was 98%. The viability at 48 h, 3 µM in “in vitro” was found to be 100%.
Consider `COc1cccc(CNCC(O)(c2ccc(Cl)cc2)c2ccc(Cl)cc2)c1` [MLS000325699-01], for which the activity at 1 µM was 124% in data set [1] (setting [3]) and 99% in data set [1] (setting [4]). Also, the activity at 3 µM in data set [1] (setting [5]) was 99%; in data set [1] (setting [6]) it was 98%. Moreover, the viability at 48 h, 1 µM in the data set “in vitro” worked out at 106%. The viability at 48 h, 3 µM in “in vitro” is 101%.
On to `O=C(Nc1ccc(N2CCCCC2)c(Cl)c1)c1nnc[nH]1` [MLS000035389-01], for which the AC50 in data set [2] came out at 4730 nM. In “in vitro”, the viability at 48 h, 1 µM came to 101% and the viability at 48 h, 3 µM is 99%.
